According to patent publication EP0431076B1, “PENTACYCLIC TRITERPENOID COMPOUNDS AS TOPOISOMERASE INHIBITORS OR CELL DIFFERENTIATION INDUCERS” (RESEARCH TRIANGLE INSTITUTE, priority 1988, dated 1990):

Biological target: T1, DNA topoisomerase I (Homo sapiens, UniProt P11387)
T1 construct: DNA topoisomerase I was purified to homogeneity from chronic human leukemic cells; from tissue; host or cells: chronic human leukemic cells (endogenous enzyme, purified)
T1 sequence (P11387 1-765): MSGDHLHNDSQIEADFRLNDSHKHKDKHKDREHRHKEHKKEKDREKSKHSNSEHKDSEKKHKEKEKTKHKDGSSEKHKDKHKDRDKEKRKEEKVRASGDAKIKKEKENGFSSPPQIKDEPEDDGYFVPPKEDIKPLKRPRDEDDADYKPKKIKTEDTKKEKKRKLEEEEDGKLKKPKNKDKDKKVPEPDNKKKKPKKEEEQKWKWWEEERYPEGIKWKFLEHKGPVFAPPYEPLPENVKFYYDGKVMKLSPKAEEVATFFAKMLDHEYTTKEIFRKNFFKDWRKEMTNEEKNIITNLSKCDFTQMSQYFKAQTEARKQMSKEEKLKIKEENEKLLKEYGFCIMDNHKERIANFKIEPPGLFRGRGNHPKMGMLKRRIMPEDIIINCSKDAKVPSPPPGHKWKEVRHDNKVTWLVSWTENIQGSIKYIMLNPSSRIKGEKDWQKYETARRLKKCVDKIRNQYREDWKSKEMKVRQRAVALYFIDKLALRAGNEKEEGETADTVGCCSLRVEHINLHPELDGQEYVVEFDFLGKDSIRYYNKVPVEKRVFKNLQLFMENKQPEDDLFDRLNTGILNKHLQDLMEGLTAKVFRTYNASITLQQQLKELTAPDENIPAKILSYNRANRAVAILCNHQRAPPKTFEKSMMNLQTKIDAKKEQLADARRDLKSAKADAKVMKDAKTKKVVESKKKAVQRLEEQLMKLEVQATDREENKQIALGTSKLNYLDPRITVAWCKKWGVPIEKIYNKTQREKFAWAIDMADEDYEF
Assay: Topoisomerase I inhibition, supercoiled pBR 322 DNA relaxation assay
Type: biochemical
Details: gel analysis, Figure 5
Source text: Topoisomerase I inhibitory activity was monitored by using the supercoiled pBR 322 DNA relaxation assay according to a published procedure [Liu et al., Proc. Natl. Acad. Sci., U.S.A., 76, 3487 ([…])].
DNA topoisomerase I was purified to homogeneity from chronic human leukemic cells. Plasmid pBR 322 DNA was purified by phenol deproteinization of cleared lysates followed by CsCl/ethidium isopycnic centrifugation and gel filtration.

potency in topoisomerase I inhibition relative to standard camptothecin (fold potency versus camptothecin) [X] | potency in topoisomerase I inhibition compared with standard camptothecin (in words) | Compound
~3 | – | CC(=O)O[C@@H]1CC[C@@]2(C)[C@@H](CC[C@]3(C)[C@@H]2CC=C2[C@@H]4CC(C)(C)CC[C@]4(C)CC[C@]23C)[C@@]1(C)C(=O)O [A-1, α-boswellic acid acetate]
– | comparable potency | CC(=O)O[C@@H]1CC[C@@]2(C)[C@@H](CC[C@]3(C)[C@@H]2CC=C2[C@@H]4[C@@H](C)[C@H](C)CC[C@]4(C)CC[C@]23C)[C@@]1(C)C(=O)O [B-1, β-boswellic acid acetate]
